Columns and labels:
HCT116 WT cells = assay: HCT116 WT cell proliferation / viability (CellTiter-Glo, 6 days); format: cell-based; settings: Homo sapiens, HCT-116, 144 h, HCT116 WT cells, 6 days, CellTiter-Glo; read-out: HCT-116 WT IC50
Outline: (§1)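 Viability read by CellTiter-Glo after 6-day compound exposure of MTAP-null and wild-type HCT116 cells grown in RPMI 1640 with 10% FBS. Dosing used 1:3 steps from 1 or 10 μM (8-9 points) or 1:2 steps from 10 or 50 μM (22 points); IC50 taken where fitted curve crosses 50% of control.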

HCT116 MTAP null cells = assay: HCT116 MTAP null cell proliferation / viability (CellTiter-Glo, 6 days); format: cell-based; settings: HCT116-MTAP null, 144 h, HCT116 MTAP null cells, 6 days, CellTiter-Glo; read-out: HCT-116 MTAP null IC50
Outline: as §1

IC50 (HCT116 WT cells)	IC50 (HCT116 MTAP null cells)	SMILES
17300 nM	900 nM	CC(C)N(Cc1ccc(C2CC2)nc1)C(=O)c1ccc2nc(N)c3c(c2c1)COC3 [Example 302, 4-amino-N-((6-cyclopropyl-3-pyridinyl)methyl)-N-(2-propanyl)-1,3-dihydrofuro[3,4-c]quinoline-8-carboxamide]
861 nM	27 nM	COC[C@@H](C)N(Cc1ccc(Cl)nn1)C(=O)c1ccc2nc(N)c3c(c2c1)COC3 [Example 305, 4-amino-N-((6-chloro-3-pyridazinyl)methyl)-N-((2R)-1-methoxy-2-propanyl)-1,3-dihydrofuro[3,4-c]quinoline-8-carboxamide]
7990 nM	217 nM	COC[C@@H](C)N(Cc1ccc(Cl)nn1)C(=O)c1cc2c3c(c(N)nc2cn1)COC3 [Example 306, 4-amino-N-((6-chloro-3-pyridazinyl)methyl)-N-((2R)-1-methoxy-2-propanyl)-1,3-dihydrofuro[3,4-c][1,7]naphthyridine-8-carboxamide]
471 nM	18 nM	COC[C@@H](C)N(Cc1ccc(Cl)nn1)C(=O)c1ccc2nc(N)c3c(c2c1)CO[C@@H]3C [Example 307, (3R)-4-amino-N-((6-chloro-3-pyridazinyl)methyl)-N-((2R)-1-methoxy-2-propanyl)-3-methyl-1,3-dihydrofuro[3,4-c]quinoline-8-carboxamide]
5100 nM	124 nM	COC[C@@H](C)N(Cc1ccc(Cl)nn1)C(=O)c1cc2c3c(c(N)nc2cn1)[C@@H](C)OC3 [Example 308, (3R)-4-amino-N-((6-chloro-3-pyridazinyl)methyl)-N-((2R)-1-methoxy-2-propanyl)-3-methyl-1,3-dihydrofuro[3,4-c][1,7]naphthyridine-8-carboxamide]
> 10000 nM	4000 nM	C[C@@H]1OCc2c1c(N)nc1cnc(C(=O)N(Cc3ccc(C(F)(F)F)cn3)C34CC(C3)C4)cc21 [Example 309, (3S)-4-amino-N-(bicyclo[1.1.1]pentan-1-yl)-3-methyl-N-((5-(trifluoromethyl)-2-pyridinyl)methyl)-1,3-dihydrofuro[3,4-c][1,7]naphthyridine-8-carboxamide]
4050 nM	71 nM	CC(C)N(Cc1ccc(C(F)(F)F)cn1)C(=O)c1cc2c3c(c(N)nc2cn1)[C@@H](C)OC3 [Example 310, (3R)-4-amino-3-methyl-N-(2-propanyl)-N-((5-(trifluoromethyl)-2-pyridinyl)methyl)-1,3-dihydrofuro[3,4-c][1,7]naphthyridine-8-carboxamide]
2200 nM	56 nM	C[C@H]1OCc2c1c(N)nc1cnc(C(=O)N(Cc3ccc(C(F)(F)F)cn3)C34CC(C3)C4)cc21 [Example 311, (3R)-4-amino-N-(bicyclo[1.1.1]pentan-1-yl)-3-methyl-N-((5-(trifluoromethyl)-2-pyridinyl)methyl)-1,3-dihydrofuro[3,4-c][1,7]naphthyridine-8-carboxamide]
> 10000 nM	1090 nM	C[C@H]1OCc2c1c(N)nc1cnc(C(=O)N(C)Cc3ccc(C#N)cn3)cc21 [Example 312, (3R)-4-amino-N-((5-cyano-2-pyridinyl)methyl)-N,3-dimethyl-1,3-dihydrofuro[3,4-c][1,7]naphthyridine-8-carboxamide]
3680 nM	200 nM	CC(C)N(Cc1ccc(C(F)(F)F)nn1)C(=O)c1cc2c3c(c(N)nc2cn1)[C@@H](C)OC3 [Example 313, (3R)-4-amino-3-methyl-N-(2-propanyl)-N-((6-(trifluoromethyl)-3-pyridazinyl)methyl)-1,3-dihydrofuro [3,4-c][1,7]naphthyridine-8-carboxamide]
11100 nM	137 nM	C[C@H]1OCc2c1c(N)nc1cnc(C(=O)N(Cc3ccc(C(F)(F)F)cn3)C3CC3)cc21 [Example 315, (3R)-4-amino-N-cyclopropyl-3-methyl-N-((5-(trifluoromethyl)-2-pyridinyl)methyl)-1,3-dihydrofuro[3,4-c][1,7]naphthyridine-8-carboxamide]
23600 nM	570 nM	C[C@H]1OCc2c1c(N)nc1cnc(C(=O)N(Cc3ccc(C#N)cn3)C3CC3)cc21 [Example 316, (3R)-4-amino-N-((5-cyano-2-pyridinyl)methyl)-N-cyclopropyl-3-methyl-1,3-dihydrofuro[3,4-c][1,7]naphthyridine-8-carboxamide]
49700 nM	432 nM	C[C@H]1OCc2c1c(N)nc1cnc(C(=O)N(C)Cc3ccc(C(F)(F)F)nn3)cc21 [Example 317, (3R)-4-amino-N,3-dimethyl-N-((6-(trifluoromethyl)-3-pyridazinyl)methyl)-1,3-dihydrofuro [3,4-c][1,7]naphthyridine-8-carboxamide]
36300 nM	4930 nM	C[C@@H]1OCc2c1c(N)nc1cnc(C(=O)N(Cc3ccc(C(F)(F)F)cn3)C3CC3)cc21 [Example 318, (3S)-4-amino-N-cyclopropyl-3-methyl-N-((5-(trifluoromethyl)-2-pyridinyl)methyl)-1,3-dihydrofuro[3,4-c][1,7]naphthyridine-8-carboxamide]
> 50000 nM	27700 nM	C[C@@H]1OCc2c1c(N)nc1cnc(C(=O)N(C)Cc3ccc(C(F)(F)F)nn3)cc21 [Example 319, (3S)-4-amino-N,3-dimethyl-N-((6-(trifluoromethyl)-3-pyridazinyl)methyl)-1,3-dihydrofuro[3,4-c][1,7]naphthyridine-8-carboxamide]
15800 nM	303 nM	C[C@H]1OCc2c1c(N)nc1cnc(C(=O)N(Cc3ccc(C(F)(F)F)cn3)CC(F)(F)F)cc21 [Example 320, (3R)-4-amino-3-methyl-N-(2,2,2-trifluoroethyl)-N-((5-(trifluoromethyl)-2-pyridinyl)methyl)-1,3-dihydrofuro [3,4-c][1,7]naphthyridine-8-carboxamide]
3790 nM	226 nM	Nc1nc2ncc(C(=O)N(Cc3ccc(C(F)(F)F)cn3)CC3CC3)cc2c2c1COC2 [Example 321, 4-amino-N-(cyclopropylmethyl)-N-((5-(trifluoromethyl)-2-pyridinyl)methyl)-1,3-dihydrofuro[3,4-c][1,8]naphthyridine-8-carboxamide]
1030 nM	81 nM	COC[C@@H](C)N(Cc1ccc(C(F)(F)F)cn1)C(=O)c1cnc2nc(N)c3c(c2c1)COC3 [Example 322, 4-amino-N-((2R)-1-methoxy-2-propanyl)-N-((5-(trifluoromethyl)-2-pyridinyl)methyl)-1,3-dihydrofuro[3,4-c][1,8]naphthyridine-8-carboxamide]
15000 nM	358 nM	CN(Cc1ccc(C2CC2)cn1)C(=O)c1ccc2nc(N)c3c(c2c1)COC3 [Example 323, 4-amino-N-((5-cyclopropyl-2-pyridinyl)methyl)-N-methyl-1,3-dihydrofuro[3,4-c]quinoline-8-carboxamide]
51600 nM	908 nM	CN(Cc1ccc(C#N)cn1)C(=O)c1ccc2nc(N)c3c(c2c1)COC3 [Example 324, 4-amino-N-((5-cyano-2-pyridinyl)methyl)-N-methyl-1,3-dihydrofuro[3,4-c]quinoline-8-carboxamide]
2280 nM	73 nM	N#Cc1ccc(CN(CC2CC2)C(=O)c2ccc3nc(N)c4c(c3c2)COC4)nc1 [Example 325, 4-amino-N-((5-cyano-2-pyridinyl)methyl)-N-(cyclopropylmethyl)-1,3-dihydrofuro[3,4-c]quinoline-8-carboxamide]
1280 nM	19 nM	C[C@H]1OCc2c1c(N)nc1ccc(C(=O)N(Cc3ccc(Br)nn3)CC3CC3)cc21 [Example 326, (3R)-4-amino-N-((6-bromo-3-pyridazinyl)methyl)-N-(cyclopropylmethyl)-3-methyl-1,3-dihydrofuro[3,4-c]quinoline-8-carboxamide]
> 10000 nM	811 nM	CN(Cc1ccc(Br)nn1)C(=O)c1ccc2nc(N)c3c(c2c1)COC3 [Example 327, 4-amino-N-((6-bromo-3-pyridazinyl)methyl)-N-methyl-1,3-dihydrofuro[3,4-c]quinoline-8-carboxamide]
19400 nM	129 nM	C[C@H]1OCc2c1c(N)nc1ccc(C(=O)N(C)Cc3ccc(Br)cn3)cc21 [Example 328, (3R)-4-amino-N-((5-bromo-2-pyridinyl)methyl)-N,3-dimethyl-1,3-dihydrofuro[3,4-c]quinoline-8-carboxamide]
160 nM	22 nM	C[C@H](c1ncccn1)N(Cc1ccc(C2CC2)nn1)C(=O)c1ccc2nc(N)c3c(c2c1)CO[C@@H]3C [Example 329, (3R)-4-amino-N-((6-cyclopropyl-3-pyridazinyl)methyl)-3-methyl-N-((1R)-1-(2-pyrimidinyl)ethyl)-1,3-dihydrofuro[3,4-c]quinoline-8-carboxamide]
> 10000 nM	204 nM	CN(Cc1ccc(Br)cn1)C(=O)c1ccc2nc(N)c3c(c2c1)COC3 [Example 330, 4-amino-N-((5-bromo-2-pyridinyl)methyl)-N-methyl-1,3-dihydrofuro[3,4-c]quinoline-8-carboxamide]
2300 nM	28 nM	C[C@H]1OCc2c1c(N)nc1ccc(C(=O)N(Cc3ccc(C#N)cn3)CC3CC3)cc21 [Example 331, (3R)-4-amino-N-((5-cyano-2-pyridinyl)methyl)-N-(cyclopropylmethyl)-3-methyl-1,3-dihydrofuro[3,4-c]quinoline-8-carboxamide]
6100 nM	120 nM	CC(C)N(Cc1ccc(Br)nn1)C(=O)c1ccc2nc(N)c3c(c2c1)CO[C@@H]3C [Example 332, (3R)-4-amino-N-((6-bromo-3-pyridazinyl)methyl)-3-methyl-N-(2-propanyl)-1,3-dihydrofuro[3,4-c]quinoline-8-carboxamide]

Source: patent publication US20240101570A1 (AMGEN INC., priority 2020, published 2024)
